Laboratory results published in ChEMBL document CHEMBL5241056, “Engagement of phytoestrogens in breast cancer suppression: Structural classification and mechanistic approach” (Eur J Med Chem, 2021).
≈ marks a conversion by molar mass, not a printed value. Blank lines part the entries; values can stand above or below the compound they belong to.

Tests used:
MCF7 [1] = assay: Antiproliferative activity against human MCF7 cells assessed as inhibition of cell growth incubated for 6 days by SRB assay; type: functional, cell-based; settings: MCF7, 144 h
[2] = Cytotoxicity against human MCF-10A cells assessed as inhibition of cell growth by MTT assay; type: toxicity, cell-based
MDA-MB-468 = assay: Antiproliferative activity against human MDA-MB-468 cells assessed as inhibition of cell growth by MTT assay; type: functional, cell-based
Estrogen receptor = target: T1, Estrogen receptor (Bos taurus, UniProt P49884); assay: Displacement of [3H]-17beta-estradiol from bovine uterine estrogen receptor by competitive binding assay
T1 sequence (P49884 whole entry): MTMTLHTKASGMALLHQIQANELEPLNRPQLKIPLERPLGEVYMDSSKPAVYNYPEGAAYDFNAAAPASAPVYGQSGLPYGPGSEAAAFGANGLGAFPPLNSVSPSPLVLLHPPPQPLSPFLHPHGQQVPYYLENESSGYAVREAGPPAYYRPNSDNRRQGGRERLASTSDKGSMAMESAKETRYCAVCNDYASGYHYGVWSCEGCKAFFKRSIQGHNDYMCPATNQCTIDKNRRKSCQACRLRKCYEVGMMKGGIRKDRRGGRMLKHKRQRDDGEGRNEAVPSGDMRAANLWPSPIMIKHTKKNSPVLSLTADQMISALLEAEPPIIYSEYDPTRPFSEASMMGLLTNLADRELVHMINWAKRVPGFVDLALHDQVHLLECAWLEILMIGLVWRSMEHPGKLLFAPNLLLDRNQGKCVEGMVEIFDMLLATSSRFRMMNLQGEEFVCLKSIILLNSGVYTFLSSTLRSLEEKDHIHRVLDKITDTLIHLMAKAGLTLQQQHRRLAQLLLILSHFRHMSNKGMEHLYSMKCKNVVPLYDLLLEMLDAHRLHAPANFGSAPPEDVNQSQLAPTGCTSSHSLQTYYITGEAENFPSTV

MCF7 [3] = assay: Antiproliferative activity against human MCF7 cells assessed as inhibition of cell growth incubated for 3 days by beta scintillation counting based [3H]-thymidine incorporation assay; type: functional
MCF7 [4] = assay: Inhibition of DNA synthesis in human MCF7 cells incubated for 4 days by BrdU incorporation assay; type: functional, cell-based; settings: MCF7, 96 h
MCF7 [5] = assay: Antiproliferative activity against human MCF7 cells assessed as inhibition of cell growth incubated for 2 days by WST-1 assay; type: functional, cell-based; settings: MCF7, 48 h
MCF7 [6] = assay: Antiproliferative activity against human MCF7 cells assessed as inhibition of cell growth incubated for 0 to 5 days by MTT assay; type: functional, cell-based
Sulfotransferase 1A1 = Sulfotransferase 1A1 (Rattus norvegicus, UniProt P17988); assay: Inhibition of rat liver SULT1A1-mediated oestradiol sulfonation incubated for 20 mins
Sequence of Sulfotransferase 1A1 (P17988 whole entry): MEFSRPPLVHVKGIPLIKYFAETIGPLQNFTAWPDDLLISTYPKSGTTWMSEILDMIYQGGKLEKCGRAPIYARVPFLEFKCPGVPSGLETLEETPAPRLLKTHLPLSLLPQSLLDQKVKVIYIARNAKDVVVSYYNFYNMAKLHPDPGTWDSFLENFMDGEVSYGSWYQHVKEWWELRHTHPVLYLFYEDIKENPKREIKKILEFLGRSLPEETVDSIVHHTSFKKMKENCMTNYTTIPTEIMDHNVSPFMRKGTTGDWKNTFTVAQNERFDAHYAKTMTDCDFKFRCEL

Sulfotransferase 2A1 = target: T2, Sulfotransferase 2A1 (Rattus norvegicus, UniProt P15709); assay: Inhibition of rat SULT2A1-mediated dehydroepiandrosterone sulfonation incubated for 20 mins
T2 sequence (P15709 whole entry): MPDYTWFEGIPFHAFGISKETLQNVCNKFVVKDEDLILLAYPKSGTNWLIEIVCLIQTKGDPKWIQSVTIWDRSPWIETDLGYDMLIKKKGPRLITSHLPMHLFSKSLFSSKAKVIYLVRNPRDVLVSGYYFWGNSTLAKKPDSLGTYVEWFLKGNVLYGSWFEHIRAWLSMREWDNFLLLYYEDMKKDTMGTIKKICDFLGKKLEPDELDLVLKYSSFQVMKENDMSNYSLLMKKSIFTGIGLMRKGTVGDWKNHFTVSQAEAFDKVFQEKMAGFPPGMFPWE

MDA-MB-231 = assay: Antiproliferative activity against human MDA-MB-231 cells assessed as inhibition of cell growth incubated for 24 to 96 hrs by MTT assay; type: functional, cell-based
[7] = Cytotoxicity against human MCF-10A cells assessed as inhibition of cell growth incubated for 24 to 96 hrs by MTT assay; type: toxicity, cell-based
MCF7 [8] = assay: Antiproliferative activity against human MCF7 cells assessed as inhibition of cell growth incubated for 4 days by SRB assay; type: functional, cell-based; settings: MCF7, 96 h
MCF7 [9] = assay: Antiproliferative activity against human MCF7 cells assessed as inhibition of cell growth incubated for 2 days by SRB assay; type: functional, cell-based; settings: MCF7, 48 h
[10] = Oral bioavailability in CD rat at 168 mg/kg administered daily for 14 days; type: ADME, organism-based; settings: in vivo, time 14 day
[11] = Oral bioavailability in CD rat at 50 mg/kg administered daily for 14 days; type: ADME, organism-based; settings: in vivo, time 14 day
Steryl-sulfatase [12] = target: T3, Steryl-sulfatase (Rattus norvegicus, UniProt P15589); assay: Inhibition of estrone sulfatase in homogeneous rat mammary tumors; type: tissue-based, Tumor
T3 sequence (P15589 whole entry): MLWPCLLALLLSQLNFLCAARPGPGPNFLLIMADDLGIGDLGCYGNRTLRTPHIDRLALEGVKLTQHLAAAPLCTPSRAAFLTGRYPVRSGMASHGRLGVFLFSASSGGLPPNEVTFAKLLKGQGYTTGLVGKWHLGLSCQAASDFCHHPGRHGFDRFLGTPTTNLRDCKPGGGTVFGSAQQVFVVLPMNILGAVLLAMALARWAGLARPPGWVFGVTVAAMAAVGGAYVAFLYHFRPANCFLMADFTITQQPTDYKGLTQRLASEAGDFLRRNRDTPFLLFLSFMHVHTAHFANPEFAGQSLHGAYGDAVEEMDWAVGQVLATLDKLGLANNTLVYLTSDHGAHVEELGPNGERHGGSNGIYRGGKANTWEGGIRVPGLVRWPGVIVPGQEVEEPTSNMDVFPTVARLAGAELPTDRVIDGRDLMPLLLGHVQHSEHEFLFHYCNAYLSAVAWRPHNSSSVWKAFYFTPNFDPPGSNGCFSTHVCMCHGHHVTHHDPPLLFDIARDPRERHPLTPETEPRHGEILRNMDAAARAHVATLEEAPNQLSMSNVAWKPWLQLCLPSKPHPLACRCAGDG

Steryl-sulfatase [13] = target: T4, Steryl-sulfatase (Homo sapiens, UniProt P08842); assay: Inhibition of estrone sulfatase in human MCF7 cell microsomes; design: species or system Microsome
T4 sequence (P08842 whole entry): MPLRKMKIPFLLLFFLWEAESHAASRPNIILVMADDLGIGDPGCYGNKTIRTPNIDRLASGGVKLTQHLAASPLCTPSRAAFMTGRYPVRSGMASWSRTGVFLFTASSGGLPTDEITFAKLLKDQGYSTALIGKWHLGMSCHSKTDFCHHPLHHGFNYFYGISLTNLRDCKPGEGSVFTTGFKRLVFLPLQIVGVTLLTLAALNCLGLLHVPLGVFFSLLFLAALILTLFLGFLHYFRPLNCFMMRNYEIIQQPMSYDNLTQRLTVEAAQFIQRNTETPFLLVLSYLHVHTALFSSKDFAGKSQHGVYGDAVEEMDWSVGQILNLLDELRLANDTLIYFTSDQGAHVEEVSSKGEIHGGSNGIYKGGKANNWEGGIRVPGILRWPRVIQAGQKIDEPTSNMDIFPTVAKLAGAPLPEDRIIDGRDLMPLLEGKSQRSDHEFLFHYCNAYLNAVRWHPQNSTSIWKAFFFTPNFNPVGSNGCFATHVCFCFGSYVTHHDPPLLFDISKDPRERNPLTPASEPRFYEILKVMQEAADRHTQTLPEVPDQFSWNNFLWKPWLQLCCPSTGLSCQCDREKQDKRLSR

SMILES: O=C(O)[C@H]1O[C@@H](Oc2cc(O)c3c(=O)cc(-c4ccc(O)cc4)oc3c2)[C@H](O)[C@@H](O)[C@@H]1O
IC50 [2]: 42 µM | IC50 (MDA-MB-468): 13 µM

SMILES: O=c1cc(-c2ccccc2)oc2cc(O)c(O)c(O)c12 [BAICALEIN]
IC50 (MCF7 [3]): 5.3 µg/mL (≈ 19.6 µM)

SMILES: COc1ccc(-c2coc3cc(O)cc(O)c3c2=O)cc1 [BIOCHANIN]
IC50 (MCF7 [1]): 10 µM | IC50 (MCF7 [4]): 40 µg/mL (≈ 141 µM) | IC50 (MCF7 [5]): 40 µg/mL (≈ 141 µM)

SMILES: O=c1oc2cc(O)ccc2c2oc3cc(O)ccc3c12 [COUMESTROL]
IC50 (MCF7 [6]): 50 µM | IC50 (MCF7 [1]): 0.04 µM

SMILES: O=c1cc(-c2ccccc2)oc2ccccc12 [FLAVONE]
IC50 (MCF7 [1]): 0.3 µM

SMILES: O=c1c(O)c(-c2ccccc2)oc2cc(O)cc(O)c12 [GALANGIN]
IC50 (MCF7 [3]): 4.2 µg/mL (≈ 15.5 µM)

SMILES: COc1cc(O)c2c(=O)cc(-c3ccc(O)cc3)oc2c1 [GENKWANIN]
IC50 [2]: 75 µM | IC50 (MDA-MB-468): 1.6 µM

SMILES: COc1cc(O)c(CC=C(C)C)c2c1C(=O)CC(c1ccc(O)cc1)O2 (centres undefined) [ISOXANTHOHUMOL]
IC50 (MCF7 [8]): 4.69 µM | IC50 (MCF7 [9]): 15.3 µM

SMILES: O=c1c(O)c(-c2ccc(O)cc2)oc2cc(O)cc(O)c12 [KAEMPFEROL]
IC50 (Sulfotransferase 1A1): 0.29 µM | IC50 (MCF7 [1]): 50 µM | IC50 (Sulfotransferase 2A1): 34 µM

SMILES: O=c1cc(-c2ccc(O)c(O)c2)oc2cc(O)cc(O)c12 [LUTEOLIN]
IC50 (MCF7 [1]): 5 µM

SMILES: C#C[C@]1(O)CC[C@H]2[C@@H]3CCc4cc(OC)ccc4[C@H]3CC[C@@]21C [MESTRANOL]
IC50 (MCF7 [1]): 0.04 µM

SMILES: O=C1C[C@@H](c2ccc(O)cc2)Oc2cc(O)cc(O)c21 [NARINGENIN]
IC50 (MCF7 [1]): 0.3 µM

SMILES: O=C(CCc1ccc(O)cc1)c1c(O)cc(O)cc1O [PHLORETIN]
IC50 (MCF7 [1]): 7 µM

SMILES: O=c1c(O)c(-c2ccc(O)c(O)c2)oc2cc(O)cc(O)c12 [QUERCETIN]
IC50 (Sulfotransferase 1A1): 0.29 µM | IC50 (MCF7 [1]): 5 µM | IC50 (Sulfotransferase 2A1): 34 µM

SMILES: COc1ccc(-c2cc(=O)c3c(OC)c(OC)c(OC)cc3o2)cc1OC [SINENSETIN]
IC50 [2]: 65 µM | IC50 (MDA-MB-468): 0.2 µM

SMILES: C[C@H]1[C@H](C)CC[C@]2(C(=O)O)CC[C@]3(C)C(=CC[C@@H]4[C@@]5(C)CC[C@H](O)C(C)(C)[C@@H]5CC[C@]43C)[C@H]12 [URSOLIC ACID]
IC50 (Steryl-sulfatase [12]): 0.131 µM | IC50 (Steryl-sulfatase [13]): 0.263 µM

Further lines, with some results ahead:

IC50 (MCF7 [1]): 1 µM
SMILES: Oc1ccc(C2COc3cc(O)ccc3C2)cc1 (centres undefined)

IC50 (Estrogen receptor): 0.06 µM
SMILES: C=C[C@@H](/C=C\c1ccc(O)cc1)c1ccc(O)cc1

IC50 (MCF7 [1]): 1 µM
SMILES: O=c1cc(-c2ccc(O)cc2)oc2cc(O)cc(O)c12 [APIGENIN]

IC50 (Sulfotransferase 1A1): 0.29 µM | IC50 (Sulfotransferase 2A1): 34 µM
SMILES: O=c1c(-c2ccc(O)cc2)coc2cc(O)ccc12 [DAIDZEIN]

IC50 (Sulfotransferase 1A1): 0.29 µM | IC50 (Sulfotransferase 2A1): 34 µM
SMILES: O=c1c(-c2ccc(O)cc2)coc2cc(O)cc(O)c12 [GENISTEIN]

IC50 (MDA-MB-231): 25 µM
SMILES: O=C(/C=C/c1ccc(O)cc1)c1ccc(O)cc1O [ISOLIQUIRITIGENIN]
IC50 [7]: 25 µM

IC50 (Estrogen receptor): 0.4 µM
SMILES: C=C[C@H](/C=C\c1ccc(O)cc1)c1ccc(O)cc1 [NYASOL]

bioavailability [10]: 80%
SMILES: COc1cc(/C=C/c2ccc(O)cc2)cc(OC)c1 [PTEROSTILBENE]

bioavailability [11]: 20%
SMILES: Oc1ccc(/C=C/c2cc(O)cc(O)c2)cc1 [RESVERATROL]

IC50 (MCF7 [8]): 6.87 µM | IC50 (MCF7 [9]): 15.7 µM
SMILES: COc1cc2c(c(O)c1C(=O)/C=C/c1ccc(O)cc1)C=CC(C)(C)O2 [XANTHOHUMOL C]

IC50 (MCF7 [8]): 3.47 µM | IC50 (MCF7 [9]): 13.3 µM
SMILES: COc1cc(O)c(CC=C(C)C)c(O)c1C(=O)/C=C/c1ccc(O)cc1 [XANTHOHUMOL]
